Assay results from patent US8518954B2, “Inhibitors of folic acid-dependent enzymes” (priority 2005, dated 2013).

How the values were obtained:
[1] = system: carcinoma W256; experiment: Walker-256 rat tumor model; format: in vivo
Experimental: Compounds of formula I were also active in vivo against the carcinoma W256 (TGI=28%), most likely due to the higher solubility and thus passive transport into the tumor compared with other anti-folate agents. Median survival times for saline-treated control animals and animals receiving Compound 4 (1 mg/kg) intraperitoneally in the Walker-256 rat tumor model were 22.5 and >46.3 days, respectively.

[2] = system: dihydrofolate reductase (DHFR); conditions: one representative experiment out of 5; 37° C., pH 7.0, 20 μM dihydrofolate, 100 μM NADPH
[3] = system: L 1210 cells; experiment: Tumor inhibition in mice, subcutaneous L1210 cells; format: in vivo; conditions: DBA/2 mice, L1210 s.c.; 0.5 mg/kg; saline control 6.7 days
Experimental: The ability of compounds of formula I to inhibit tumor growth in mice was tested as follows. 5×10^6 L 1210 cells were injected subcutaneously in the axillary region of DBA/2 mice (groups of 8 mice/treatment). Following intraperitoneal administration of saline solution only or saline solution containing a compound of formula I the length and width of the control tumor (receiving only saline) was measured at the indicated time and compared to those of animals receiving test compound to calculate the percentage of inhibition. Intraperitoneal administration of a saline solution containing the test compound, daily for 6 days, led to 60% tumor-free long term survivors (tumor weight zero). Median survival times for saline-treated control animals and animals receiving Compound 4 (0.5 mg/kg) were 6.7 and 15.6 days, respectively. Oral administration of the compound required a higher dosage of the inhibitor and led to a less-marked, but still significant reduction of the tumor weight and 25% long-term survivors as compared with the saline-treated control group.

[4] = 0.25 mg/kg - 3 doses every 4 days
[5] = 0.5 mg/kg - 3 doses every 4 days

N-[4-[[2,4-diamino-6-pteridinyl)methyl]amino]benzoyl]pseudoglutamic acid [Compound 4]
No. animals surviving at day 30 days post-transplant ([1]; 0.1 mg/kg - 5 doses every day): 10/10 | Tumor volume (cm^3) ± SE ([1]; 0.1 mg/kg - 5 doses every day): 14.5 ± 3.8 cm^3 | No. animals surviving at day 30 days post-transplant [1, 4]: 8/10 | Tumor volume (cm^3) ± SE [1, 4]: 23 ± 3.5 cm^3 | No. animals surviving at day 30 days post-transplant [1, 5]: 9/10 | Tumor volume (cm^3) ± SE [1, 5]: 13.4 ± 3.07 cm^3 | No. animals surviving at day 30 days post-transplant ([1]; 1 mg/kg - one dose): 8/10 | Tumor volume (cm^3) ± SE ([1]; 1 mg/kg - one dose): 17.1 ± 3.3 cm^3 | Median survival time ([1]; Walker-256 rat tumor model, 1 mg/kg intraperitoneally, saline control 22.5 days): > 46.3 days | Relative IC50 (IC50(Compound)/IC50(MTX)) [2]: 0.75 | Median survival time [3]: 15.6 days
